From US9012403B2, “Peptides as active agents to stabilize biological barriers” (XiberScience GmbH, priority 2010, dated 2015)
Marks after values point to notes of the source that are not given here.

Tests used:
LPS induced lung injury = assay: LPS induced lung injury, bronchoalveolar lavage; assay type: in vivo; conditions: mice, 6 h after LPS, n = 20
Protocol: Male C57Bl/6 Mice (Charles River, Germany) were kept at the animal facility of the Medical University of Vienna, feed with standard diet and water was provided ad libitum. All interventions were performed according to the guide lines of AAALAC (Association for Assessment and Accreditation of Laboratory Animal Care). All experiment were approved by the Ethic committee of the Medical University of Vienna. Mice were anesthetized with isoflouran and treated with 100 ng of LPS (E. coli O55:B5, Sigma Aldrich) intranasally. XIB1-a or XIB1-b was applied either intra-peritoneally (2×2 mg/kg) or via inhalation (2×4 mg/kg), first application was performed concomitantly with LPS administration, the second application was performed 1 h after the LPS inhalation.
The trachea was exposed through a midline incision and canulated with a sterile 20-gauge catheter (BD Venflon™, Becton Dickinson Infusion Therapy, Helsingborg, Sweden). Bilateral broncho-alveolar lavage fluid (BALF) was gained by instilling two 0.5 ml aliquots of sterile saline. Approximately 0.9-1 ml BALF was retrieved per mouse. Total cell numbers were counted from each sample using a hemo-cytometer (Türck chamber), BALF differential cell counts were done on cytospin preparations stained with Giemsa. For protein measurements, BALF was diluted 1:2 in buffer containing 300 mM NaCl, 30 mM Tris, 2 mM MgCl2, 2 mM CaCl2, and Pepstatin A, Leupeptin and Aprotinin (all 20 ng/ml; pH 7.4). Protein levels in BALF were measured using the BCA protein kit according to the manufacturer's instructions (Pierce, Rockford, Ill.).
In addition, the same set-up as described above was used for comparing the impact of XIB1-b compared to Bβ15-42 (PLoS ONE (2009), 4(4): e5391), a peptide derived from fibrin having the sequence […] (SEQ ID NO: 41). Bβ15-42 was added in the same manner as XIB1-b. Again, protein content and cell count of BALF was measured.

[1] = tested on: Ventilator-Induced Lung Injury (VILI); assay: Ventilator-induced lung injury (VILI) after LPS pre-challenge; assay type: in vivo; conditions: mice, LPS + high tidal volume ventilation (LPS-HTV); i.v. 4 mg/kg loading, then 1 mg/kg/h
Protocol: Experiments were performed with healthy C57BL/6 (aged 8-10 weeks, with weights ranging from 19-25 g). All interventions were performed according to the guide lines of AAALAC. All experiment were approved by the Ethic committee of the University of Amsterdam.
Mice were challenged with LPS (dosage: 50 μg per mouse) (or saline), via intranasal injection 2 h before initiation of mechanical ventilation, to induce lung injury.
XIB1-1b (or random peptide) was administered i.v. 10 min before start of mechanical ventilation (dosage: 4 mg/kg loading dose, followed administration i.v. injections 1 mg/kg/h.
A Y-tube connector with 1.0 mm outer diameter and 0.6 mm inner diameter was surgically inserted into the trachea under general anesthesia. Mice were placed in a supine position and connected to a ventilator. Mice were pressure-controlled ventilated with either an inspiratory pressure of 10 cm H2O (resulting in VT˜7.5 mL/kg; low VT, LVT) or an inspiratory pressure of 18 cm H2O (resulting in VT˜15 mL/kg; high VT, HVT). Positive end-expiratory pressure (PEEP) is set at 2 cm H2O with both MV-strategies. The fraction of inspired oxygen was kept at 0.5 throughout the experiment. The inspiration to expiration ratio was kept at 1:1 throughout the experiment.
BALF was obtained by instilling 3 times 0.5 mL aliquots of saline by a 22-gauge Abbocath-T catheter (Abbott, Sligo, Ireland) into the trachea. Approximately, 1.0 mL of BALF was retrieved per mouse and cell counts were determined using a hemacytometer (Beckman Coulter, Fullerton, Calif.). Subsequently, differential counts were done on cytospin preparations stained with a modified Giemsa stain, Diff-Quick (Dade Behring AG, Düdingen, Switzerland). Supernatant was stored at −80° C.
Total protein levels in BALF are determined using a Bradford Protein Assay Kit (OZ Biosciences, Marseille, France) according to manufacturers' instructions with bovine serum albumin as standard. Mouse IgM was determined by ELISA by using anti-Mouse IgM sensitized 96-strip micro-well plates according to manufacturers' instructions (IMMUNO-TEK kit from ZeptoMetrix).

GEF [2] = assay: GEF-activity in membrane fractions of ECV304 cells (RhoGEF Exchange Assay); assay type: cell-based; conditions: ECV 304, Thrombin 1 U/ml, with or without peptide 50 μg/ml
Protocol: (§1) To measure the GEF-inhibitory effect, the following cell lines were used: Caco-2 (epithelial cells from adeno-carcinoma), ECV304 (epithelial cells from bladder carcinoma) and HpMec (endothelial cells, immortalized pulmonary micro-vascular cells). All cells were grown at standard conditions (37° C., 5% CO2 and 95% relative humidity (rH)). Culture Medium used for Caco-2: DMEM+1 mM sodium pyruvate+20% FCS+1% Penicillin Streptomycin; for ECV 304: RPMI 1640+10% FCS+1% Penicillin Streptomycin; and for HpMec: IMDM+25 mM Hepes+10% Human Serum+1% Penicillin Streptomycin+1% L-Glutamine+ECGS/Heparin 2 ml. 4 h before the experiment, cells were starved by serum withdrawal. To induce GEF-activity, cells were stimulated with thrombin, lipopolysaccharide (LPS) or PMA for the indicated time in presence or absence of 50 μg/ml XIB1-a or XIB1-b. After stimulation, membrane fractions were prepared by using the commercial available “Compartemental Protein Extraction Kit” from Biochain institutes. Membrane fractions were prepared according to the manufacturer instructions. GEF-activity in membrane lysates was determined by using “RhoGEF Exchange Assay Biochem Kit” from Cytoskeleton Inc. according to manufacturer instructions. GEF-activity was measured as fluorescence at using the Fluoroskan Ascent FL 2.6 from Thermo Electron Corporation. The excitation Filter wavelength was set at 355 nm and the emission filter wavelength at 460 nm.

GEF [3] = assay: GEF-activity in membrane fractions of HpMec cells (RhoGEF Exchange Assay); assay type: cell-based; conditions: for increase in GEF-activity: HepMec cells, thrombin; for GEF-activity, relative values compared to unstimulated control (Mean): HpMec, Thrombin 1 U/ml, with or without peptide 50 μg/ml
Protocol: as §1

GTP-bound RhoA [4] = assay: GTP-associated active RhoA in ECV304 membrane fraction (western blot); assay type: cell-based; conditions: ECV 304, Thrombin 1 U/ml, with or without peptide 50 μg/ml
Protocol: (§2) To measure the GTP-associated active RhoA, the following cell lines were used: Caco-2, ECV304 and HpMec. All cells were grown at standard conditions (37° C., 5% CO2 and 95% rH). 4 h before the experiment, cells were starved by serum withdrawal. To induce GEF-activity, cells were stimulated with thrombin, LPS or PMA for the indicated time in presence or absence of 50 μg/ml XIB1-a or XIB1-b. After stimulation, membrane fractions were prepared by using the commercial available “Compartemental Protein Extraction Kit” from Biochain Institutes. Membrane fractions were prepared according to the manufacturer instructions. The membrane fraction was separated on 15% polyacrylamide gel according to standard procedures of gel electrophoresis. The gels were afterwards blotted on a nitrocellulose membrane according to standard procedures of western blotting. GTP-bound RhoA was detected using RhoA-GTP monoclonal antibody from NewEast Inc. in a dilution of 1:5000. Protein bands were analyzed with the Dolphin-1D Gel analysis system (Wealtec).

GTP-bound RhoA [5] = assay: GTP-associated active RhoA in HpMec membrane fraction (western blot); assay type: cell-based; conditions: for increase in RhoA-activity: HepMec cells, thrombin; for GTP-bound RhoA, relative values compared to unstimulated control (Mean): HpMec, Thrombin 1 U/ml, with or without peptide 50 μg/ml
Protocol: as §2

[6] = tested on: Phosphorylated Myosin Light Chain (MLC) and actin stress fibers; assay: MLC phosphorylation and actin stress fiber formation in ECV304 cells (microscopy score); assay type: cell-based; conditions: ECV 304, Thrombin 1 U/ml, with or without peptide 50 μg/ml
Protocol: (§3) To measure MLC phosphorylation and actin stress fiber formation, the following cell lines were used: Caco-2, ECV304 and HpMec. All cells were grown at standard conditions (37° C., 5% CO2 and 95% rH). Culture Medium used: for Caco-2: DMEM+1 mM sodium pyruvate+20% FCS+1% Penicillin Streptomycin; for ECV 304: RPMI 1640+10% FCS+1% Penicillin Streptomycin; and for HpMec: IMDM+25 mM Hepes+10% Human Serum+1% Penicillin Streptomycin+1% L-Glutamine+ECGS/Heparin 2 ml. 4 h before the experiment, cells were starved by serum withdrawal. To induce GEF-activity, cells were stimulated with thrombin, LPS or PMA for the indicated time in presence or absence of 50 μg/ml XIB1-a or XIB1-b. After stimulation, cells were fixed using 4% PFA. Phospho MLC was detected by using the “rabbit anti phosphor-myosin light chain antibody” from Chemicon in a concentration of 3 μl/ml in PBS (Gibco) supplemented with 0.1% Triton X-100. As detection antibody, the Alexa 448 tagged “anti Rabbit IgG Antibody” from Invitrogen was used in a concentration of 0.5 μl/ml in PBS (Gibco) supplemented with 0.1% Triton X-100. Aktin was detected using TRITC-labeled Phalloidin in a concentration of 0.5 μl/ml in PBS (Gibco) supplemented with 0.1% Triton. Stained cells were analyzed by using a Zeiss Laser Scan microscope. Evaluation of the cyto-skeletal activation was performed by 2 independent observers that were blinded to the conditions. Evaluation criteria were set as follows:
(§4) Actin: parallel actin bundles absent=0; distinct bundle formation=1; prominent parallel bundles=2; Phospho-MLC: present at cell poles=0; slight co-localization with actin bundles=1; prominent co-localization with actin bundles=2

[7] = tested on: Phosphorylated Myosin Light Chain (MLC) and actin stress fibers; assay: MLC phosphorylation and actin stress fiber formation in HpMec cells (microscopy score); assay type: cell-based; conditions: Thrombin 1 U/ml, with or without peptide 50 μg/ml
Protocol: as §3, §4

GEF [8] = assay: GEF-activity in membrane fractions of Caco-2 cells (RhoGEF Exchange Assay); assay type: cell-based; conditions: for GEF-activity, relative values compared to unstimulated control (Mean): CaCo-2, PMA 1 μg/ml, with or without peptide 50 μg/ml
Protocol: as §1

GTP-bound RhoA [9] = assay: GTP-associated active RhoA in Caco-2 membrane fraction (western blot); assay type: cell-based; conditions: for GTP-bound RhoA, relative values compared to unstimulated control (Mean): CaCo-2, PMA 1 μg/ml, with or without peptide 50 μg/ml; for increase of RhoA-activity: CaCo-2 cells, PMA-stimulus
Protocol: as §2

[10] = tested on: Phosphorylated Myosin Light Chain (MLC) and actin stress fibers; assay: MLC phosphorylation and actin stress fiber formation in Caco-2 cells (microscopy score); assay type: cell-based; conditions: CaCo-2, PMA 1 μg/ml, with or without peptide 50 μg/ml
Protocol: as §3, §4

With “GHRPLDKKKREEAPSLRPAPPPISGGGYR (/note=“Description of artificial sequence peptide Bbeta 15-42”) [Bβ15-42, a peptide derived from fibrin]” the “albumine content of BALFs (mean +/ SD)” value (LPS induced lung injury; comparison with Bβ15-42 (Table 6), intraperitoneal application) was 160 ± 20 µg/mL, the “counts of neutrophils in the BALF (mean +/ SD)” value (LPS induced lung injury; comparison with Bβ15-42 (Table 6), intratracheal plus intraperitoneal application) was 35 +/− 10 neutrophils/ml (× 10^3) and the “albumine content of BALFs (mean +/ SD)” value (LPS induced lung injury; comparison with Bβ15-42 (Table 6, last section), intraperitoneal application as printed) was 152 ± 35 µg/mL.
“GGGGGSRRIPL (/note=“Description of artificial sequence variable insert”) [scrambled peptide, scrambled peptide control in the VILI experiment, reference compound]” was tested, and the “IgM content in the BALF” value [1] was “No improvement”, the “neutrophil count in the BALF” value [1] was “No improvement” and the “total cell count in the BALF” value [1] was “No improvement”. The “total protein content in the BALF” value [1] was “No improvement”.
With Thrombin [reference compound] the “GEF-activity, relative values compared to unstimulated control (Mean)” value (“GEF-activity, relative values” below) (GEF [2]; 1 min) was 5, the “GEF-activity, relative values” value (GEF [2]; 5 min) was 3.4 and the “increase in GEF-activity” value (GEF [3]; after 1 min) was 3.5 fold. For the same compound, the “increase in GEF-activity” value (GEF [3]; after 5 min) was 3 fold, the “GEF-activity, relative values” value (GEF [3]; 1 min) was 3.5 and the “GEF-activity, relative values” value (GEF [3]; 5 min) was 3. For the same compound, the “GTP-bound RhoA, relative values compared to unstimulated control (Mean)” value (from here on “GTP-bound RhoA, relative values”) (GTP-bound RhoA [4]; 1 min) was 4.3, the “GTP-bound RhoA, relative values” value (GTP-bound RhoA [4]; 5 min) was 3.2 and the “increase in RhoA-activity” value (GTP-bound RhoA [5]; after 1 min) was 3.8 fold. The “increase in RhoA-activity” value (GTP-bound RhoA [5]; after 5 min) was 3.2 fold, the “GTP-bound RhoA, relative values” value (GTP-bound RhoA [5]; 1 min) was 3.8 and the “GTP-bound RhoA, relative values” value (GTP-bound RhoA [5]; 5 min) was 3.2. The “MLC phosphorylation and actin stress fiber formation, evaluation score (Mean)” value ([6]; 1 min) was 4, the “MLC phosphorylation and actin stress fiber formation, evaluation score (Mean)” value ([6]; 5 min) was 4 and the “MLC phosphorylation and actin stress fiber formation, evaluation score (Mean)” value ([7]; 1 min) was 4. For the same compound, the “MLC phosphorylation and actin stress fiber formation, evaluation score (Mean)” value ([7]; 5 min) was 4.
With CCCCCCCCCCCCCC(=O)O[C@@H]1[C@@H](C)[C@@]2(O)[C@@H](C=C(CO)C[C@]3(O)C(=O)C(C)=C[C@@H]23)[C@@H]2C(C)(C)[C@]12OC(C)=O [PMA, reference compound] the “GEF-activity, relative values” value (GEF [8]; 1 min) was 2.5, the “GEF-activity, relative values” value (GEF [8]; 5 min) was 1.8 and the “increase of GEF-activity” value (GEF [8]; CaCo-2 cells, 1 min PMA-stimulus) was 2.5 fold. For the same compound, the “GTP-bound RhoA, relative values” value (GTP-bound RhoA [9]; 1 min) was 2.3, the “GTP-bound RhoA, relative values” value (GTP-bound RhoA [9]; 5 min) was 2.0 and the “increase of RhoA-activity” value (GTP-bound RhoA [9]; after 5 mm of stimulation) was 2 fold. For the same compound, the “increase of RhoA-activity” value (GTP-bound RhoA [9]; after 1 min) was 2.3 fold, the “MLC phosphorylation and actin stress fiber formation, evaluation score (Mean)” value ([10]; 1 min) was 3 and the “MLC phosphorylation and actin stress fiber formation, evaluation score (Mean)” value ([10]; 5 min) was 3.
